US20050256134A1, “Use of creatine analogues and creatine kinase modulators for the prevention and treatment of glucose metabolic disorders” (AVICENA GROUP, INC., priority 1995, published 2005)

Test system: terminal cancer patients
Assay: Phase I/II open label dose escalation study, glucose levels, 3 hour continuous infusion
Assay type: in vivo, human
Description: Cyclocreatine was tested in humans in a phase I/II open label dose escalation study. […] Cyclocreatine was administered at doses that ranged from 10 mg/Kg to 100 mg/Kg. The schedule of administration of cyclocreatine is described in Table 4.
Cohorts of 3 patients were administered drug at each dose level, via a 3 hour continuous infusion in one liter volume of saline. The first week patients received cyclocreatine once, the second week patients received cyclocreatine twice, the third week three times, the fourth week four times, the fifth week five times. On weeks six and seven, no drug was administered to allow the drug to wash out. On week eight, cyclocreatine was given five times. The study included a total of 23 patients (18 male, 5 female) with a median age of 71 years (range 54-85). The patients had different types of malignancies. Eligibility requirements included patients who have failed standard therapy or for whom no therapy was available, normal organ function, have recovered from prior therapies, probability of survival of greater than three months. Reasons for exclusion included: major surgery, life threatening concurrent illness and CNS metastasis. Blood samples were collected at baseline and 1 day before and after the last weekly drug administration on days 1, 7, 9, 14, 17, 21, 25, 28, 33, 40, 47, 49, 54, 61, and 69. Glucose levels were determined for these collected blood samples. […] Not all patients experienced a significant drop in glucose although the trend was there. FIGS. 14 and 15 illustrate graphically individual patients' glucose levels upon treatment with 60 mg/Kg or 80 mg/Kg cyclocreatine. Patient (A) at the 80 mg/Kg dose was diabetic and had many serious complications due to their disease. […] It should be noted that an insufficient number of readings was made shortly after drug administration. It is interesting to note that several patients who were diabetic or had higher glucose levels than normal did respond to cyclocreatine, onen example being illustrated in FIG. 16.

For `NC1=NCCN1CC(=O)O` [cyclocreatine], the “patients with significant hypoglycemia” value (80 mg/Kg) was 2 out of 3, the “patients with significant hypoglycemia” value (100 mg/Kg) was 2 out of 7 and the Glucose (Ave, 40 mg/Kg, Study Day 0) was 125 mg/dL. For the same compound, the Glucose (Ave, 40 mg/Kg, Study Day 1) was 105 mg/dL, the Glucose (Ave, 40 mg/Kg, Study Day 7) was 119 mg/dL and the Glucose (Ave, 40 mg/Kg, Study Day 9) was 125 mg/dL. It also gave a Glucose (Ave, 40 mg/Kg, Study Day 14) of 129 mg/dL, a Glucose (Ave, 40 mg/Kg, Study Day 17) of 139 mg/dL and a Glucose (Ave, 40 mg/Kg, Study Day 21) of 112 mg/dL. The Glucose (Ave, 40 mg/Kg, Study Day 25) was 161 mg/dL, the Glucose (Ave, 40 mg/Kg, Study Day 28) was 122 mg/dL and the Glucose (Ave, 40 mg/Kg, Study Day 33) was 149 mg/dL. For the same compound, the Glucose (Ave, 40 mg/Kg, Study Day 40) was 104 mg/dL, the Glucose (Ave, 40 mg/Kg, Study Day 47) was 99 mg/dL and the Glucose (Ave, 40 mg/Kg, Study Day 49) was 128 mg/dL. The Glucose (Ave, 40 mg/Kg, Study Day 54) was 132 mg/dL, the Glucose (Ave, 40 mg/Kg, Study Day 61) was 105 mg/dL and the Glucose (Ave, 40 mg/Kg, Study Day 69) was 119 mg/dL. It also gave a Glucose (Ave, 60 mg/Kg, Study Day 7) of 37 mg/dL, a Glucose (Patient 2, 7, 40 mg/Kg, Study Day 0) of 115 mg/dL and a Glucose (Patient 2, 7, 40 mg/Kg, Study Day 1) of 95 mg/dL. It also gave a Glucose (Patient 2, 7, 40 mg/Kg, Study Day 7) of 153 mg/dL, a Glucose (Patient 2, 7, 40 mg/Kg, Study Day 9) of 123 mg/dL and a Glucose (Patient 2, 7, 40 mg/Kg, Study Day 14) of 102 mg/dL. It also gave a Glucose (Patient 2, 7, 40 mg/Kg, Study Day 17) of 117 mg/dL, a Glucose (Patient 2, 7, 40 mg/Kg, Study Day 21) of 104 mg/dL and a Glucose (Patient 2, 7, 40 mg/Kg, Study Day 25) of 122 mg/dL. The Glucose (Patient 2, 7, 40 mg/Kg, Study Day 28) was 154 mg/dL, the Glucose (Patient 2, 8, 40 mg/Kg, Study Day 0) was 222 mg/dL and the Glucose (Patient 2, 8, 40 mg/Kg, Study Day 1) was 116 mg/dL. For the same compound, the Glucose (Patient 2, 8, 40 mg/Kg, Study Day 9) was 148 mg/dL, the Glucose (Patient 2, 8, 40 mg/Kg, Study Day 14) was 184 mg/dL and the Glucose (Patient 2, 8, 40 mg/Kg, Study Day 17) was 251 mg/dL. The Glucose (Patient 2, 8, 40 mg/Kg, Study Day 25) was 278 mg/dL, the Glucose (Patient 2, 8, 40 mg/Kg, Study Day 33) was 244 mg/dL and the Glucose (Patient 2, 8, 40 mg/Kg, Study Day 40) was 139 mg/dL. For the same compound, the Glucose (Patient 2, 8, 40 mg/Kg, Study Day 49) was 129 mg/dL, the Glucose (Patient 2, 8, 40 mg/Kg, Study Day 54) was 195 mg/dL and the Glucose (Patient 2, 8, 40 mg/Kg, Study Day 69) was 205 mg/dL. It also gave a Glucose (Patient 2, 9, 40 mg/Kg, Study Day 0) of 98 mg/dL, a Glucose (Patient 2, 9, 40 mg/Kg, Study Day 1) of 87 mg/dL and a Glucose (Patient 2, 9, 40 mg/Kg, Study Day 7) of 117 mg/dL. It also gave a Glucose (Patient 2, 9, 40 mg/Kg, Study Day 9) of 148 mg/dL, a Glucose (Patient 2, 9, 40 mg/Kg, Study Day 14) of 126 mg/dL and a Glucose (Patient 2, 9, 40 mg/Kg, Study Day 17) of 139 mg/dL. It also gave a Glucose (Patient 2, 9, 40 mg/Kg, Study Day 21) of 90 mg/dL, a Glucose (Patient 2, 9, 40 mg/Kg, Study Day 25) of 114 mg/dL and a Glucose (Patient 2, 9, 40 mg/Kg, Study Day 28) of 87 mg/dL. The Glucose (Patient 2, 9, 40 mg/Kg, Study Day 33) was 121 mg/dL, the Glucose (Patient 2, 9, 40 mg/Kg, Study Day 40) was 92 mg/dL and the Glucose (Patient 2, 9, 40 mg/Kg, Study Day 47) was 105 mg/dL. The Glucose (Patient 2, 9, 40 mg/Kg, Study Day 49) was 132 mg/dL, the Glucose (Patient 2, 9, 40 mg/Kg, Study Day 54) was 105 mg/dL and the Glucose (Patient 2, 9, 40 mg/Kg, Study Day 61) was 104 mg/dL. The Glucose (Patient 2, 9, 40 mg/Kg, Study Day 69) was 92 mg/dL, the Glucose (Patient 8, 40 mg/Kg, Study Day 0) was 94 mg/dL and the Glucose (Patient 8, 40 mg/Kg, Study Day 1) was 114 mg/dL. For the same compound, the Glucose (Patient 8, 40 mg/Kg, Study Day 7) was 96 mg/dL, the Glucose (Patient 8, 40 mg/Kg, Study Day 9) was 115 mg/dL and the Glucose (Patient 8, 40 mg/Kg, Study Day 14) was 87 mg/dL. The Glucose (Patient 8, 40 mg/Kg, Study Day 17) was 91 mg/dL, the Glucose (Patient 8, 40 mg/Kg, Study Day 21) was 103 mg/dL and the Glucose (Patient 8, 40 mg/Kg, Study Day 25) was 96 mg/dL. The Glucose (Patient 8, 40 mg/Kg, Study Day 28) was 125 mg/dL, the Glucose (Patient 8, 40 mg/Kg, Study Day 33) was 122 mg/dL and the Glucose (Patient 8, 40 mg/Kg, Study Day 40) was 67 mg/dL. The Glucose (Patient 8, 40 mg/Kg, Study Day 47) was 116 mg/dL, the Glucose (Patient 8, 40 mg/Kg, Study Day 49) was 122 mg/dL and the Glucose (Patient 8, 40 mg/Kg, Study Day 54) was 136 mg/dL. The Glucose (Patient 8, 40 mg/Kg, Study Day 61) was 102 mg/dL, the Glucose (Patient 8, 40 mg/Kg, Study Day 69) was 135 mg/dL and the Glucose (Patient 9, 40 mg/Kg, Study Day 0) was 118 mg/dL. For the same compound, the Glucose (Patient 9, 40 mg/Kg, Study Day 1) was 114 mg/dL, the Glucose (Patient 9, 40 mg/Kg, Study Day 7) was 73 mg/dL and the Glucose (Patient 9, 40 mg/Kg, Study Day 9) was 130 mg/dL. For the same compound, the Glucose (Patient 9, 40 mg/Kg, Study Day 14) was 151 mg/dL, the Glucose (Patient 9, 40 mg/Kg, Study Day 17) was 145 mg/dL and the Glucose (Patient 9, 40 mg/Kg, Study Day 21) was 156 mg/dL. The Glucose (Patient 9, 40 mg/Kg, Study Day 25) was 210 mg/dL, the Glucose (Patient 9, 40 mg/Kg, Study Day 28) was 151 mg/dL and the Glucose (Patient 9, 40 mg/Kg, Study Day 33) was 109 mg/dL. The Glucose (Patient 9, 40 mg/Kg, Study Day 40) was 128 mg/dL, the Glucose (Patient 9, 40 mg/Kg, Study Day 47) was 75 mg/dL and the Glucose (Patient 9, 40 mg/Kg, Study Day 54) was 145 mg/dL. For the same compound, the Glucose (Patient 9, 40 mg/Kg, Study Day 61) was 121 mg/dL, the Glucose (Patient 9, 40 mg/Kg, Study Day 69) was 89 mg/dL and the Glucose (Patient 10, 40 mg/Kg, Study Day 0) was 100 mg/dL. It also gave a Glucose (Patient 10, 40 mg/Kg, Study Day 7) of 156 mg/dL, a Glucose (Patient 10, 40 mg/Kg, Study Day 9) of 84 mg/dL and a Glucose (Patient 10, 40 mg/Kg, Study Day 14) of 123 mg/dL. For the same compound, the Glucose (Patient 10, 40 mg/Kg, Study Day 17) was 93 mg/dL, the Glucose (Patient 10, 40 mg/Kg, Study Day 21) was 106 mg/dL and the Glucose (Patient 10, 40 mg/Kg, Study Day 25) was 143 mg/dL. It also gave a Glucose (Patient 10, 40 mg/Kg, Study Day 28) of 91 mg/dL, a Glucose (Patient 10, 40 mg/Kg, Study Day 40) of 94 mg/dL and a Glucose (Patient 10, 40 mg/Kg, Study Day 47) of 100 mg/dL. For the same compound, the Glucose (Patient 10, 40 mg/Kg, Study Day 54) was 79 mg/dL, the Glucose (Patient 10, 40 mg/Kg, Study Day 61) was 92 mg/dL and the Glucose (Patient 10, 40 mg/Kg, Study Day 69) was 74 mg/dL. The Glucose (Patient 11, 60 mg/Kg, Study Day 7) was 141 mg/dL, the Glucose (Patient 12, 60 mg/Kg, Study Day 7) was 72 mg/dL and the Glucose (Patient 13, 60 mg/Kg, Study Day 7) was 48 mg/dL. For the same compound, the glucose response (Patient (A), diabetic, 80 mg/Kg) was “did not seem to respond well”, the clinical observation (highest tested drug concentrations (80 and 100 mg/Kg)) was “became lethargic and hypoglycemic and required immediate intervention to revert glucose levels” and the Glucose Levels (lower tested drug concentrations) was “trend towards a drop in glucose levels shortly after drug administration”. The glucose response (several patients who were diabetic or had higher glucose levels than normal) was “did respond”.
